Test results reported in ChEMBL document CHEMBL1201862, “PubChem BioAssay data set” (2004).
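Assay format: 96-well plates, 48-hour exposure. Abbreviation: GI50, concentration required for 50% inhibition of growth.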 The source made the active and inactive calls. Cut-off read from the data, not from the text of the source: active = GI50 up to about 1.1 µM and inactive = higher.

Legend:
Assay in all cases: DTP human tumour cell line panel, 48 h
PC-3 = system: PC-3
CCRF-CEM = system: CCRF-CEM
U-251 = system: U-251
NCI-H226 = system: NCI-H226
HCT-15 = system: HCT-15
SF-295 = system: SF-295
NCI-H460 = system: NCI-H460
SW-620 = system: SW-620
IGROV-1 = system: IGROV-1
T47D = system: T47D
COLO 205 = system: COLO 205
SF-268 = system: SF-268
HL-60 = system: HL-60
RPMI-8226 = system: RPMI-8226
A498 = system: A498
Malme-3M = system: Malme-3M
SK-MEL-28 = system: SK-MEL-28
ACHN = system: ACHN
MDA-MB-435 = system: MDA-MB-435
SN12C = system: SN12C

SMILES	GI50 (PC-3)	GI50 (CCRF-CEM)	GI50 (U-251)	GI50 (NCI-H226)	GI50 (HCT-15)	GI50 (SF-295)	GI50 (NCI-H460)	GI50 (SW-620)	GI50 (IGROV-1)	GI50 (T47D)	GI50 (COLO 205)	GI50 (SF-268)	GI50 (HL-60)	GI50 (RPMI-8226)	GI50 (A498)	GI50 (Malme-3M)	GI50 (SK-MEL-28)	GI50 (ACHN)	GI50 (MDA-MB-435)	GI50 (SN12C)
CCCCc1ccc(Nc2nc(S)c3[nH]cnc3n2)cc1	29.7 µM (inactive)	21.1 µM (inactive)	24.7 µM (inactive)	16.3 µM (inactive)	37.5 µM	25.1 µM (inactive)	33.3 µM (inactive)	15.4 µM (inactive)	18.7 µM (inactive)	15.6 µM (inactive)	16.6 µM (inactive)	50.7 µM (inactive)	27.9 µM (inactive)	44.5 µM (inactive)	16.6 µM (inactive)	22 µM (inactive)	22.9 µM (inactive)	23.1 µM (inactive)	17.1 µM (inactive)	22.8 µM (inactive)
CCCCCCCC(CC(=O)NC(CO)C(=O)NC(CO)CC(C)C)OC(=O)CC(CCCCCCC)OC(=O)CC(CCCCCCC)OC1OC(C)C(O)C(OC2OC(C)C(O)C(O)C2O)C1O (stereo not given)	12.7 µM (inactive)	3.37 µM (inactive)	11.1 µM (inactive)	16.6 µM (inactive)	19.7 µM	14 µM (inactive)	6.73 µM (inactive)	15.7 µM (inactive)	12.6 µM (inactive)	10.9 µM (inactive)	8.87 µM (inactive)	8.41 µM (inactive)	3.26 µM (inactive)	2.37 µM (inactive)	18.7 µM (inactive)	9.66 µM (inactive)	7.94 µM (inactive)	12.2 µM (inactive)	6.52 µM (inactive)	14.5 µM (inactive)
CO[C@@H]1C[C@H]2[C@@H]3CC[C@H]([C@@H](C)CO)[C@@]3(C)CC[C@@H]2[C@@]2(C)CC[C@H]3C[C@]312	22.6 µM (inactive)	40.2 µM (inactive)	14.6 µM (inactive)	24.4 µM (inactive)	33.3 µM	30.5 µM (inactive)	20.9 µM (inactive)	31.9 µM (inactive)	50.9 µM (inactive)	20 µM (inactive)	17.6 µM (inactive)	67 µM (inactive)	25.2 µM (inactive)	25 µM (inactive)	> 100 µM (inactive)	19.5 µM (inactive)	27.6 µM (inactive)	26.5 µM (inactive)	27.5 µM (inactive)	33 µM (inactive)
